Results as given in ChEMBL document CHEMBL6096680, “Development of PRC1 Inhibitors Employing Fragment-Based Approach and NMR-Guided Optimization” (J Med Chem, 2025).
The source made the active and inactive calls. The calls are words filed in the database; no cut-off is given here.

Assays:
Homo sapiens [1] = species on record: Homo sapiens; test: Binding affinity to 15N-labeled RING1B (10 to 116 residues)/BMI1 (1 to 104 residues) (unknown origin) extracted from Escherichia coli BL21 (DE3) cells assessed as sum of A79, G83 and T89 chemical shift perturbations at 100 uM by NMR binding analysis
Homo sapiens [2] = species on record: Homo sapiens; test: Binding affinity to 15N-labeled RING1B (10 to 116 residues)/BMI1 (1 to 104 residues) (unknown origin) extracted from Escherichia coli BL21 (DE3) cells assessed as ratio of chemical shift perturbations at 1:2 compound concentration ration by NMR binding analysis
[3] = Inhibition of 6His-tagged RING1B (10 to 116 residues)/BMI1 (1 to 104 residues) (unknown origin) extracted from Escherichia coli BL21 (DE3) cells preincubated with compound for 1 hrs followed by 3-(1-(4,26-dioxo-30-((3aS,4S,6aR)-2-oxohexahydro-1H-thieno[3,4-d]imidazol-4-yl)-7,10,13,16,19,22-hexaoxa-3,25-diazatriacontyl)-6-methoxy-1H-indol-4-yl)-5-(6-fluoro-1H-indol-4-yl)-4-isopropyl-1H-pyrrole-2-carboxylic acid addition and measured after 1 hrs by Alphascreen competition assay; parameters: species or system Homo sapiens
Homo sapiens [4] = species on record: Homo sapiens; test: Binding affinity to 15N-labeled RING1B (10 to 116 residues)/BMI1 (1 to 104 residues) (unknown origin) extracted from Escherichia coli BL21 (DE3) cells assessed as sum of A79, G83 and T89 chemical shift perturbations at 200 uM by NMR binding analysis
[5] = Binding affinity to 15N-labeled RING1B (10 to 116 residues)/BMI1 (1 to 104 residues) (unknown origin) extracted from Escherichia coli BL21 (DE3) cells assessed as dissociation constant by NMR-based fragment screening analysis; parameters: species or system Homo sapiens
[6] = Binding affinity to RING1B (10 to 116 residues)/BMI1 (1 to 104 residues) (unknown origin) extracted from Escherichia coli BL21 (DE3) cells assessed as chemical shift perturbation for amide of Gly83 residue by measuring estimated dissociation constant by 1H-15N HSQC spectra based NMR titration analysis; parameters: species or system Homo sapiens
Homo sapiens [7] = species on record: Homo sapiens; test: (§1) Inhibition of RING1B (10 to 116 residues)-BMI1 (1 to 104 residues) (unknown origin) extracted from Escherichia coli BL21 (DE3) cells using HeLa nucleosome as substrate assessed as reduction in reduction in H2AK119 ubiquitination preincubated with compound for 1 hrs followed by flag-tagged ubiquitin and substrate addition and measured after 1 hrs by Western blot analysis; settings: time 2.0 hrs
[8] = as §1; parameters: species or system Homo sapiens
Homo sapiens [9] = species on record: Homo sapiens; test: Binding affinity to 15N-labeled RING1A (7 to 113 residues)/BMI1 (1 to 104 residues) (unknown origin) extracted from Escherichia coli BL21 (DE3) cells assessed as chemical shift perturbation for amide of Gly83 residue at 60 to 120 uM by 1H-15N HSQC spectra based NMR titration analysis; settings: dose 60-120 µM
Homo sapiens [10] = species on record: Homo sapiens; test: Binding affinity to 15N-labeled RING1B (10 to 116 residues)/BMI1 (1 to 104 residues) (unknown origin) extracted from Escherichia coli BL21 (DE3) cells assessed as chemical shift perturbation for amide of Gly83 residue at 60 to 120 uM by 1H-15N HSQC spectra based NMR titration analysis; settings: dose 60-120 µM
[11] = Binding affinity to RING1B (10 to 116 residues)/BMI1 (1 to 104 residues) (unknown origin) extracted from Escherichia coli BL21 (DE3) cells assessed as dissociation constant by ITC analysis; parameters: species or system Homo sapiens
[12] = Selectivity ratio of IC50 for inhibition of 6His-tagged RING1B (10 to 116 residues)-BMI1 (1 to 104 residues) (unknown origin) extracted from Escherichia coli BL21 (DE3) cells to IC50 for inhibition of 6His-tagged RING1A (7 to 113 residues)-BMI1 (1 to 104 residues) (unknown origin) extracted from Escherichia coli BL21 (DE3) cells
[13] = Inhibition of 6His-tagged RING1A (7 to 113 residues)-BMI1 (1 to 104 residues) (unknown origin) extracted from Escherichia coli BL21 (DE3) cells preincubated with compound for 1 hrs followed by 3-(1-(4,26-dioxo-30-((3aS,4S,6aR)-2-oxohexahydro-1H-thieno[3,4-d]imidazol-4-yl)-7,10,13,16,19,22-hexaoxa-3,25-diazatriacontyl)-6-methoxy-1H-indol-4-yl)-5-(6-fluoro-1H-indol-4-yl)-4-isopropyl-1H-pyrrole-2-carboxylic acid addition and measured after 1 hrs by Alphascreen competition assay; parameters: species or system Homo sapiens

| SMILES | Activity (Homo sapiens [1]) | Ratio (Homo sapiens [2]) | IC50 [3] | Activity (Homo sapiens [4]) | further results |
| --- | --- | --- | --- | --- | --- |
| CC(C)c1c(-c2cc(F)cc3[nH]ccc23)[nH]c(C(=O)O)c1-c1cc(Cl)cc2[nH]ccc12 | 280 Hz | 0.92 | 2.8 µM | 305 Hz |  |
| O=C(O)c1ccc(-c2ccccc2)[nH]1 |  |  |  |  | Kd [5]: 3600 µM |
| CCc1c(C(=O)O)[nH]c(-c2cccc3[nH]ccc23)c1CC |  |  |  |  | Kd [6]: 250 µM |
| CC(C)c1c(-c2cccc3[nH]c(C(=O)O)cc23)[nH]c(C(=O)O)c1-c1c(Cl)ccc2[nH]ccc12 |  |  | 2.2 µM |  |  |
| CC(CF)c1c(-c2cccc3[nH]ccc23)[nH]c(C(=O)O)c1-c1cccc2[nH]ccc12 (stereo not drawn) | 216 Hz | 0.78 | 8 µM | 277 Hz |  |
| CC(C)c1c(-c2cc(Cl)cc3[nH]ccc23)[nH]c(C(=O)O)c1-c1c(Cl)ccc2[nH]ccc12 |  |  | 5.3 µM |  |  |
| CC(C)c1c(-c2cc(F)cc3cc[nH]c23)[nH]c(C(=O)O)c1-c1c(Cl)ccc2[nH]ccc12 |  |  | 4.4 µM |  |  |
| CC(C)c1c(-c2cccc3[nH]c(CO)cc23)[nH]c(C(=O)O)c1-c1c(Cl)ccc2[nH]ccc12 |  |  | 2 µM |  |  |
| COc1cc(-c2c(C(=O)O)[nH]c(-c3cc(F)cc4[nH]ccc34)c2C(C)C)c2cc[nH]c2c1 | 318 Hz | 0.92 | 2.5 µM | 338 Hz |  |
| CCc1c(-c2cccc3[nH]ccc23)[nH]c(C(=O)O)c1-c1cccc2[nH]ccc12 | 102 Hz | 0.63 | 13 µM | 163 Hz | inhibition (Homo sapiens [7]): Dose-dependent-effect; Inhibition Of E3 Ligase Activity Of Prc1 Observed; IC50 [8]: 19.3 µM; Kd [5]: 9 µM |
| CCc1c(-c2cccc3[nH]ccc23)[nH]c(C(=O)O)c1-c1ccccc1Cl |  |  |  |  | Kd [5]: 11.5 µM |
| COc1cc(-c2c(C(=O)O)[nH]c(-c3cc(F)cc4[nH]ccc34)c2C(C)C)c2ccn(CCNC(=O)CCOCCOCCOCCOCCOCCOCCNC(=O)CCCC[C@@H]3SC[C@@H]4NC(=O)N[C@@H]43)c2c1 |  |  |  |  | Activity (Homo sapiens [9]): Active; Activity (Homo sapiens [10]): Active |
| Cc1cc(C(=O)O)[nH]c1-c1cccc2[nH]ccc12 |  |  |  |  | Kd [5]: 1400 µM |
| O=C(O)c1[nH]c(-c2cccc3[nH]ccc23)c(C2CC2)c1-c1cccc2[nH]ccc12 | 138 Hz | 0.65 | 15.8 µM | 211 Hz |  |
| CCc1cc(-c2[nH]c(C(=O)O)c(-c3c(Cl)ccc4[nH]ccc34)c2C(C)C)c2cc[nH]c2c1 |  |  | 6.3 µM |  |  |
| O=C(O)c1ccc(-c2cccc3[nH]ccc23)[nH]1 |  |  |  |  | Kd [6]: 2200 µM |
| COc1cc(-c2[nH]c(C(=O)O)c(-c3c(Cl)ccc4[nH]ccc34)c2C(C)C)c2cc[nH]c2c1 |  |  | 5 µM |  |  |
| CC(C)c1c(-c2cc(F)cc3[nH]ccc23)[nH]c(C(=O)O)c1-c1cccc2[nH]ccc12 | 308 Hz | 0.94 | 3.3 µM | 329 Hz | Kd [11]: 4 µM |
| CC(CO)c1c(-c2cccc3[nH]ccc23)[nH]c(C(=O)O)c1-c1cccc2[nH]ccc12 (stereo not drawn) | 107 Hz | 0.62 | 37.7 µM | 172 Hz |  |

| SMILES | Activity (Homo sapiens [1]) | Ratio (Homo sapiens [2]) | IC50 [3] | Activity (Homo sapiens [4]) | further results |
| --- | --- | --- | --- | --- | --- |
| CCC(C)c1c(-c2cccc3[nH]ccc23)[nH]c(C(=O)O)c1-c1cccc2[nH]ccc12 (stereo not drawn) | 268 Hz | 0.92 | 5.6 µM | 291 Hz |  |
| CCOc1cc(-c2c(C(=O)O)[nH]c(-c3cc(F)cc4[nH]ccc34)c2C(C)C)c2cc[nH]c2c1 | 313 Hz | 0.95 | 2.3 µM | 331 Hz |  |
| Cc1cc(-c2c(C(=O)O)[nH]c(-c3cc(F)cc4[nH]ccc34)c2C(C)C)c2cc[nH]c2c1 | 261 Hz | 0.82 | 4.8 µM | 319 Hz | Ratio IC50 [12]: 2; IC50 [13]: 2.6 µM |
| CCc1cc(-c2c(C(=O)O)[nH]c(-c3cc(F)cc4[nH]ccc34)c2C(C)C)c2cc[nH]c2c1 | 285 Hz | 0.92 | 5.4 µM | 309 Hz | Ratio IC50 [12]: 2; IC50 [13]: 3.2 µM |
| CCc1c(-c2cccc3[nH]ccc23)[nH]c(C(=O)O)c1C1CCCCC1 |  |  |  |  | Kd [6]: 170 µM |
| CC(c1c(-c2cccc3[nH]ccc23)[nH]c(C(=O)O)c1-c1cccc2[nH]ccc12)C(F)F (stereo not drawn) | 215 Hz | 0.81 | 8.2 µM | 264 Hz | Ratio IC50 [12]: 2; IC50 [13]: 4.3 µM |
| CC(C)c1c(-c2cc(C(F)(F)F)cc3[nH]ccc23)[nH]c(C(=O)O)c1-c1c(Cl)ccc2[nH]ccc12 |  |  | 7.2 µM |  | inhibition (Homo sapiens [7]): Dose-dependent-effect; Inhibition Of E3 Ligase Activity Of Prc1 Observed; IC50 [8]: 6.7 µM |
| CC(C)c1c(-c2cc(F)cc3[nH]ccc23)[nH]c(C(=O)O)c1-c1cc(C(F)(F)F)cc2[nH]ccc12 | 298 Hz | 0.93 | 5.5 µM | 319 Hz |  |
| CC(C)c1c(-c2cccc3[nH]ccc23)[nH]c(C(=O)O)c1-c1cccc2[nH]ccc12 | 295 Hz | 0.95 | 3.6 µM | 311 Hz | Kd [11]: 6.5 µM |
| CC(C)c1c(-c2cccc3[nH]ccc23)[nH]c(C(=O)O)c1-c1c(Cl)ccc2[nH]ccc12 |  |  | 2.9 µM |  |  |
| Cc1cc(-c2cccc3[nH]ccc23)[nH]c1C(=O)O |  |  |  |  | Kd [6]: 1100 µM |
| CC(C)c1c(-c2cc(F)cc3[nH]ccc23)[nH]c(C(=O)O)c1-c1cc(F)cc2[nH]ccc12 | 320 Hz | 0.97 | 4.3 µM | 330 Hz |  |
| Cc1ccc2[nH]ccc2c1-c1[nH]c(C(=O)O)c(-c2c(Cl)ccc3[nH]ccc23)c1C(C)C |  |  | 5.1 µM |  |  |
| CC(C)c1c(-c2ccc3cc[nH]c3c2)[nH]c(C(=O)O)c1-c1c(Cl)ccc2[nH]ccc12 |  |  | 10.9 µM |  |  |
| CCc1c(-c2cccc3[nH]ccc23)[nH]c(C(=O)O)c1-c1ccccc1 |  |  |  |  | Kd [6]: 30 µM |
| Cc1cc(-c2[nH]c(C(=O)O)c(-c3c(Cl)ccc4[nH]ccc34)c2C(C)C)c2cc[nH]c2c1 |  |  | 5.8 µM |  | Ratio IC50 [12]: 2; IC50 [13]: 2.5 µM |
| O=C(O)c1ccc(-c2ccccc2)s1 |  |  |  |  | Kd [5]: 7000 µM |
| CC(C)c1c(-c2ccc3[nH]ccc3c2)[nH]c(C(=O)O)c1-c1c(Cl)ccc2[nH]ccc12 |  |  | 4 µM |  |  |
